Measurements as given in patent US7202280B2, “Methods for the treatment and prevention of pancreatitis and for induction of liver regeneration” (priority 2002, dated 2007).

Columns and labels:
MT-SSAT transgenic rats = assay: Zinc-induced pancreatitis, prevention by pretreatment with analogue (plasma α-amylase, pancreatic histology); type: in vivo, rat; design: key to Histological scoring (0 to 4): Edema / Histological scoring (0 to 4): Inflammation: 0 (absent); 1 (minimal); 4 (maximal); conditions: for Histological scoring (0 to 4): Edema / Histological scoring (0 to 4): Inflammation / Histological scoring (0 to 4): Necrosis / Histological scoring (0 to 4): Vacuolization: Zn; for Plasma α-amylase activity / acinar necrosis (pancreatic histology): transgenic rats; for Plasma α-amylase activity: zinc 10 mg/kg; for acinar necrosis (pancreatic histology): zinc
Description: FIG. 2. Plasma α-amylase activity in syngenic and transgenic rats after zinc and methylspermidine. The animals were treated as in FIG. 1. Six to eight animals in each group. *p<0.05 as compared with zinc-treated animals. ***p<0.001 as compared with untreated animals. Me-spd, methylspermidine.
FIGS. 3a–3d. Histology of pancreas of transgenic rats after zinc and methylspermidine. The animals were treated as in FIGS. 1a–1d. Magnification ×125. […] The animals received zinc (10 mg/kg) 24 h before sacrifice without (FIG. 3b) or with methylspermidine (50 mg/kg) either as single dose 4 h before zinc (FIG. 3c) or as two doses 20 h and 4 h before zinc (FIG. 3d).
Formalin-fixed pancreatic specimens were embedded in paraffin, cut into 5-μm-thick slices, and stained with hematoxylin/eosin. The stained sections were coded and scored by the participating gastroenterologist (K.-H. H.) according to the method of Niederau et al. (Niederau, C., Liddle, R. A., Ferrell, L. D., and Grendell, J. H. (1986) J. Clin. Invest. 78, 1056–1063).
FIG. 3 depicts pancreatic histology in transgenic animals after saline (FIG. 3a), after zinc alone (FIG. 3b), after zinc and single dose of the analogue (FIG. 3c) and after zinc and two doses of the analogue (FIG. 3d). The acinar structure of untreated transgenic animal is entirely normal (FIG. 3a) whereas zinc induced distinct pancreatitis with more than 50% of the acinar cells undergoing necrosis (FIG. 3b). […] Table A summarizes the histological scoring of pancreatic specimens from all animals. […] A single dose of the analogue administered prior to zinc reduced the extent of necrosis while after two repeated doses of the compound very little, if any, necrosis was present (Table A).
MT-SSAT (UKUR30) transgenic rats received zinc (10 mg/kg i.p.) 24 h before sacrifice either alone or in the combination with Me2SPM (25 mg/kg i.p.) administered twice 20 h and 4 h before zinc. There were three animals in each group. Plasma amylase activity was measured as a marker of pancreatitis.

[1] = test system: syngenic and transgenic rats; assay: Liver regeneration after partial hepatectomy (liver weight, PCNA labeling index, thymidine incorporation); type: in vivo, rat; conditions: for stimulation of DNA synthesis (thymidine incorporation): 25 mg/kg 20 h and 4 h before; for PCNA-positive hepatocytes: repeated experiment
Description: FIGS. 5a–5b. Liver weight (FIG. 5a) and PCNA labeling index (FIG. 5b) in syngenic and transgenic rats after partial hepatectomy and methylspermidine. Three to five animals in each group. *p<0.05, ***p<0.001 as compared with preoperative values. Md-spd, methylspermidine.
FIG. 10. Effect of polyamine analogues on thymidine incorporation in 24-h regenerating livers of SSAT transgenic rats. […] Ten μCi of tritiated thymidine was given 30 min before sacrifice. Three to four animals in each group.
The production of transgenic Wistar rats (UKUR30) and mice (UKU181) harboring metallothionein-SSAT fusion gene (Suppola, S., Pietilä, M., Parkkinen, J. J., Korhonen, V. P., Alhonen, L., Halmekytö, M., Porter, C. W., and Jänne, J. (1999) Biochem. J. 338, 311–316) has been described earlier (Alhonen, L., Parkkinen, J. J., Keinänen, T., Sinervirta, R., Herzig, K. H., and Jänne, J. (2000) Proc. Natl. Acad. Sci. U.S.A. 97, 8290–8295; Lukkarinen, J., Gröhn, O., Sinervirta, R., Järvinen, A., Kauppinen, R. A., Jänne, J., and Alhonen, L. (1997) Stroke 28, 639–645). Partial hepatectomy was carried out according to the original method of Higgins and Anderson (Higgins, G. H., and Anderson, R. M. (1931) Arch. Pathol. 12, 186–202). Treatments before partial hepatectomy and the determination of DNA synthesis were carried out as in (Räsänen, T. L., Alhonen, L., Sinervirta, R., Keinänen, T., Herzig, K. H., Suppola, S., Khomutov, A. R., Vepsäläinen, J., and Jänne, J. (2002) J. Biol. Chem. 277, 39867–39872). […] The animals were sacrificed 24 h after the second MDL72527 injection and liver pieces were frozen in liquid nitrogen, homogenized in buffer (25 mM Tris-HCl pH 7.4, 0.1 mM EDTA, 1 mM DTT). An aliquot of the homogenates was used for the polyamine assays. The homogenates were centrifuged (at 13 000×g, for 30 min, at 4° C.) and the supernatants were used for the enzyme activity assays. The Institutional Animal Care and Use Committee of the University of Kuopio and by the Provincial Government approved animal experiments.
PCNA was detected from formalin-fixed paraffin-embedded tissue section as described in detail earlier (Alhonen, L., Räsänen, T. L., Sinervirta, R., Parkkinen, J. J., Korhonen, V. P., Pietilä, M., and Jänne, J. (2002) Biochem. J. 362, 149–15).
PCNA was used as an indicator of proliferative activity during liver regeneration. Immunohistochemical detection of PCNA is a convenient and commonly used method to grade proliferative activity in various tissues. PCNA expression is closely correlated with the S-phase of the cell cycle (17). FIG. 5b depicts PCNA labeling index before partial hepatectomy and at 24 h postoperatively in syngenic and transgenic rats without or with methylspermidine treatment. In resting liver, only about 1% of the hepatocytes were PCNA-positive. In syngenic animals, the number of PCNA-positive cells increased sharply to over 30% at 24 h after the operation whereas in transgenic animals the number of positive cells remained at the low preoperative level at this time point (FIG. 5b). […] The experiment was repeated with other groups of syngenic and transgenic rats. In this experiment, PCNA-positive hepatocytes accounted for 0.5±0.1% in resting syngenic liver. The number of positive cells rose to 10.7±3.5% at 24 h postoperatively without the analogue (p<0.001) and to 9.8±1.5% with the analogue (p<0.001). The corresponding figures for the transgenic animals were 0.20±0.0 before the operation, 0.42±0.24% at 24 h postoperatively without methylspermidine and 25.9±4.9% with methylspermidine (p<0.001). It thus appears that the analogue completely reversed the proliferative block in transgenic livers.
Liver regeneration could be restored by a prior administration of α-methylspermidine (Räsänen, T. L., Alhonen, L., Sinervirta, R., Keinänen, T., Herzig, K. H., Suppola, S., Khomutov, A. R., Vepsäläinen, J., and Jänne, J. (2002) J. Biol. Chem. 277, 39867–39872). […]

[2] = MT-SSAT transgenic rats, zinc 10 mg/kg i.p. 24 h, Me2SPM 25 mg/kg i.p. 20 h and 4 h before zinc
[3] = SSAT transgenic rats, 24 h after partial hepatectomy

Q: With CC(N)CCNCCCCNCCC(C)N (stereo not drawn) [bis-α-methylspermine, 1,12-dimethylspermine] as the compound, how does the Pancreatic histology (MT-SSAT transgenic rats; [2]) read?
A: modest edema

Q: What about the plasma amylase (MT-SSAT transgenic rats; [2]) of the same compound?
A: 2744 ± 837

Q: And the prevention of pancreatitis (MT-SSAT transgenic rats; rats with depleted polyamine pools, 25 mg/kg 2 injections i.p. 20/4 hours prior to zinc)?
A: prevents pancreatitis

Q: And the “stimulation of DNA synthesis (thymidine incorporation)” value [1, 3]?
A: about 10 fold

Q: What does the source list for CC(N)CCNCCCCN (stereo not drawn) [α-methylspermidine, 1-methylspermidine]?
A: Histological scoring (0 to 4): Edema (MT-SSAT transgenic rats; Sg rats, 1 × Me-spd 50 mg/kg): 1; Histological scoring (0 to 4): Inflammation (MT-SSAT transgenic rats; Sg rats, 1 × Me-spd 50 mg/kg): 1; Histological scoring (0 to 4): Necrosis (MT-SSAT transgenic rats; Sg rats, 1 × Me-spd 50 mg/kg): 0 (0, 0–5%); Histological scoring (0 to 4): Vacuolization (MT-SSAT transgenic rats; Sg rats, 1 × Me-spd 50 mg/kg): 0 (0, 0–5%); Histological scoring (0 to 4): Edema (MT-SSAT transgenic rats; Sg rats, 2 × Me-spd 50 mg/kg): 1; Histological scoring (0 to 4): Inflammation (MT-SSAT transgenic rats; Sg rats, 2 × Me-spd 50 mg/kg): 0; Histological scoring (0 to 4): Necrosis (MT-SSAT transgenic rats; Sg rats, 2 × Me-spd 50 mg/kg): 0 (0, 0–5%); Histological scoring (0 to 4): Vacuolization (MT-SSAT transgenic rats; Sg rats, 2 × Me-spd 50 mg/kg): 0 (0, 0–5%); Histological scoring (0 to 4): Edema (MT-SSAT transgenic rats; Tg rats, 1 × Me-spd 50 mg/kg): 1; Histological scoring (0 to 4): Inflammation (MT-SSAT transgenic rats; Tg rats, 1 × Me-spd 50 mg/kg): 1; Histological scoring (0 to 4): Necrosis (MT-SSAT transgenic rats; Tg rats, 1 × Me-spd 50 mg/kg): 2 (2, 15–35%); Histological scoring (0 to 4): Vacuolization (MT-SSAT transgenic rats; Tg rats, 1 × Me-spd 50 mg/kg): 0 (0, 0–5%); Histological scoring (0 to 4): Edema (MT-SSAT transgenic rats; Tg rats, 2 × Me-spd 50 mg/kg): 1; Histological scoring (0 to 4): Inflammation (MT-SSAT transgenic rats; Tg rats, 2 × Me-spd 50 mg/kg): 1; Histological scoring (0 to 4): Necrosis (MT-SSAT transgenic rats; Tg rats, 2 × Me-spd 50 mg/kg): 0–1; Histological scoring (0 to 4): Vacuolization (MT-SSAT transgenic rats; Tg rats, 2 × Me-spd 50 mg/kg): 1 (1, 5–15%); Plasma α-amylase activity (MT-SSAT transgenic rats; single dose 50 mg/kg 4 h before zinc): decreased after a single dose; Plasma α-amylase activity (MT-SSAT transgenic rats; two doses 50 mg/kg 20 h and 4 h before zinc): fully normalized after two repeated doses; acinar necrosis (pancreatic histology) (MT-SSAT transgenic rats; single dose before zinc): very little necrosis was present; acinar necrosis (pancreatic histology) (MT-SSAT transgenic rats; two doses before zinc): none after two doses; thymidine incorporation (DNA synthesis) ([1]; SSAT transgenic rats, 24 h after partial hepatectomy, 5 mg/kg 20 h and 4 h before): only insignificantly increased DNA synthesis; stimulation of DNA synthesis (thymidine incorporation) [1, 3]: about 10 fold; liver weight gain ([1]; non-transgenic rats, 24 h after partial hepatectomy): no effect on the weight gain; PCNA-positive hepatocytes ([1]; syngenic rats, 24 h postoperatively with the analogue): 9.8±1.5%; PCNA-positive hepatocytes ([1]; transgenic rats, 24 h postoperatively with methylspermidine): 25.9±4.9%; PCNA labeling index ([1]; syngenic livers, 24 h after partial hepatectomy): did not change PCNA labeling index; PCNA-positive cells ([1]; transgenic liver, 24 h after partial hepatectomy, from about 1%): more than 40%; liver weight ([1]; transgenic rats, 24 h after partial hepatectomy): significantly increased the organ weight
